This is an account of results in patent US12570970B2, “Inorganic phosphate as a stabilizer for phytase enzymes” (DANISCO US INC, priority 2018, dated 2026).

Data set [1] deals with BP-17 phytase. Nature of the data set: Phytase melting temperature (Tm) in the presence of excipients, differential scanning fluorimetry (nanoDSF). It counts as physicochemical, Buttiauxella sp. As for the experimental part:
An experiment was performed to determine whether the addition of different excipients during thermal exposure increases the melting temperature of the phytase enzyme in the liquid state. Excipient solutions were prepared at their highest solubility, then titrated from highest to lowest concentrations prior to their addition to the phytase UFC. The enzyme/excipient combinations were then exposed to a temperature profile of 21-95° C., and the melting temperatures were measured via differential scanning fluorimetry. The concentration of phytase in the UFC was measured at 123.9 g/L via HPLC. […] A 20% phytic acid solution was prepared by dissolving 1 gram of phytic acid into 5 mL of 0.1 M acetate buffer pH 5.5. The pH was adjusted from 4.2 to 5.47 using 20% NaOH, and then the solution was filtered using a 0.45 μM syringeless filter. A 25% sodium sulfate anhydrous solution was prepared by dissolving 5 grams into 20 mL of water. The pH was adjusted to 5.6 using sulfuric acid, and then the solution was filtered using a 0.45 μM syringeless filter. A 20% sodium polyphosphate solution was prepared by dissolving 5 grams into 25 mL of water. The pH was adjusted to 5.6 using concentrated phosphoric acid, and then the solution was filtered using a […] syringeless filter. […] The pH was adjusted to 5.6 using 80% citric acid, and then the solution was filtered using a 0.45 μM syringeless filter. A 20% sodium phosphate dibasic solution was prepared by dissolving 2 grams into 10 mL of water. The pH was adjusted to 5.6 using concentrated phosphoric acid, and then the solution was filtered using a 0.45 μM syringeless filter. A volume of 100 μL of an excipient stock solution was added to well A in column 1 of a 96-well plate. A volume of 50 μL of water was added to each well B-H in column 1 of the same 96-well plate. The excipient stock solution was titrated 2-fold down the column of the plate by transferring 50 μL into each subsequent well. A volume of 80 μL of the pH adjusted UFC was added to each of the wells in column 1 of a new 96-well plate. A volume of 20 μL was transferred from each well of the titrated excipient directly into the corresponding well containing the UFC. The 96-well plate containing the enzyme and excipient combinations was mixed on a plate shaker for 5 seconds. Standard capillaries for the nanoDSF were filled by dipping a capillary in each well of the 96-well plate, and then loading onto the Nanotemper instrument. The Nanotemper instrument was programmed to run at 10% excitation power and 21-95° C. with a 1° C./minute ramp. The Nanotemper instrument monitors the shift of intrinsic tryptophan fluorescence of proteins upon unfolding by measuring wavelengths at 330 and 350 nm.
Background: In DSF a fluorescence change marks the thermal transition of the protein.

Data set [2] concerns BP-17 phytase. Nature of the data set: Thermal inactivation of BP-17 phytase at 70° C. in the presence of stabilizing salts, residual activity by colorimetric assay. It counts as biochemical, Buttiauxella sp. The settings on record: for phytase activity state: 70° C. Here is the method:
An experiment was performed to determine whether the addition of excipients during thermal stress conditions allows the phytase enzyme to retain its activity. A temperature was selected at which the phytase enzyme is completely inactivated in the absence of excipient after 30-minutes incubation. Excipient solutions were prepared at their highest solubility. then titrated from highest to lowest concentrations prior to their addition to the phytase UFC. The enzyme/excipient combinations were then exposed to a temperature of 70° C., and the residual activity was measured after 2, 5, 10, 20, 30, and 60-minutes incubation via a colorimetric activity assay
A 20% (or 1.41 M) sodium phosphate solution was prepared by dissolving 5 grams of sodium phosphate dibasic anhydrous into 25 mL of water. The pH was adjusted to 5.5 using concentrated phosphoric acid. A 25% (or 0.85 M) sodium citrate solution was prepared by dissolving 5 grams of sodium citrate dihydrate into 20 mL of water. The pH was adjusted to 5.5 using 80% citric acid.
A volume of 80 μL of the 20% sodium phosphate stock solution was added to the first well of 8 different 12-well PCR strips. A volume of 40 μL of −Q water was added to wells 2, 3. 4, 5, and 6 of each PCR strip. The sodium phosphate stock solution was serially diluted 2-fold sequentially from well 1 to well 6. A volume of 80 μL of the 25% sodium citrate stock solution was added to well 7 of each PCR strip. A volume of 40 μL of water was added to wells 8, 9, 10, 11, and 12 of each PCR strip. The sodium citrate stock solution was serially diluted 2-fold sequentially from well 7 to well 11, leaving well 12 to contain water only. The BP-17 phytase UFC was diluted 50-fold in autoclaved water. A volume of 40 μL of the diluted UFC was added to each well of the 8 different 12-well PCR strips containing the diluted excipients.
The temperature cycler was programmed to a temperature of 70° C. One PCR strip was sealed and placed immediately on ice for the time zero measurement. The remaining PCR strips were sealed, placed inside the PCR, incubated for varying increments of time (0.5, 2, 5, 10, 20, 30, and 60 minutes), then removed from the PCR and placed immediately on ice. After each of the PCR strips had been collected on ice, they were placed on a 96-well PCR tube rack and centrifuged for 2 minutes at 3500 rpm.
As some precipitation occurred during thermal inactivation, the PCR strips were subjected to centrifugation and the supernatant was removed and diluted with assay buffer (0.1 M acetate Buffer pH 5.5+0.05% w/v Tween 20) to a final activity of 0.012 FTU/mL in a non-binding (Corning 3641) 96-well plate. A volume of 40 μL was transferred from the enzyme dilution plate into a separate reaction plate (Costar 9017, medium binding). A volume of 40 μL of substrate (150 μM sodium phytate) was then added to each of the wells of the reaction plate. The reaction plate was sealed and incubated for 10 minutes at 25° C. and 900 rpm. A volume of 170 μL of Pi Blue stop/color reagent (POPB-500 by BioAssay Systems US) was then added to each well of the reaction plate to stop the reaction. The plate was sealed and incubated for 30 minutes at 25° C. and 400 rpm for color development, then read in a spectrophotometer at 620 nm.

Data set [3] concerns BP-17 phytase. Nature of the data set: Mechanism of inhibition: phytase activity with titrated substrate and titrated excipient (PNPP assay). It counts as biochemical, Buttiauxella sp. The settings on record: ambient assay conditions (25° C.). Here is the method:
Kinetic analysis was performed to determine the mechanism of stabilization of both the sodium phosphate and sodium citrate with respect to the phytase enzyme by measuring the activity of phytase in the presence of both titrated substrate and titrated excipient concentrations.
The BP-17 phytase UFC was diluted 7,000-fold in 0.1 M acetate buffer pH 5.5.
The substrate stock solution (400 mM) was prepared by dissolving 0.923 grams of 4-nitrophenyl phosphate di (tris) salt into 5 mL of 0.25 M acetate buffer pH 5.5. A volume of 200 μL of the substrate stock solution was added to columns 1 and 7 of a 96-well plate. A volume of 100 μL of 0.25 M acetate Buffer pH 5.5 was added to columns 2-6 and 8-12 of the same 96-well plate. Serial dilutions were performed by transferring 100 μL from column 1 into column 2 of the 96-well plate, and then repeating this dilution pattern across the plate to column 6 so that the following substrate concentrations were made: 400, 200, 100, 50, 25, and 12.5 mM. The same serial dilutions were performed across the second half of the plate from columns 7 to 12.
A 20% (or 1.41 M) sodium phosphate solution was prepared by dissolving 5 grams of sodium phosphate dibasic anhydrous into 25 mL of 0.1 M acetate buffer pH 5.5. […]

Each structure is given as a SMILES string. Where a name gives a salt, the structure may show the parent alone.

On to `O=P([O-])([O-])O.[Na+].[Na+]` [sodium phosphate, Sodium phosphate, dibasic, anhydrous], for which, in the data set with BP-17 phytase [1] (equivalent molar ratios to the phytase, normalized for anion equivalents, FIG. 4), the “stabilizing effect on Tm compared with other excipients” value is “greater than that of sodium phytate, sodium polyphosphate, and sodium sulfate”. Further, the “increase in melting temperature of phytase” value in the data set with BP-17 phytase [1] (molar ratio of 130:1 sodium phosphate to phytase, phytase UFC, liquid state, FIGS. 2 and 3) is “approximately 5.5 °C”. Besides, the “increase in melting temperature compared with citrate” value with BP-17 phytase [1] (normalized for charge equivalents, FIG. 5) is “much higher”. For the same molecule, the “relative residual phytase activity retained” value in the data set on BP-17 phytase [2] (352 mM sodium phosphate, 60-minutes incubation at 70° C., FIG. 6) is “approximately 90%”. Further, in the data set on BP-17 phytase [2] (half of 352 mM sodium phosphate, 60-minutes incubation at 70° C., FIG. 6), the phytase activity retained result was “approximately 60%”. For the same molecule, the phytase activity state entry in the data set with BP-17 phytase [2] (sodium phosphate below half of 352 mM, FIG. 6) is recorded as “nearly inactivated”. Also, the “phytase activity in presence of excipient and substrate” value with BP-17 phytase [3] (150 mM sodium phosphate and 100 mM phytic acid substrate, FIG. 8) was “very little activity”.

As for `O=P(O)(O)O[C@H]1[C@H](OP(=O)(O)O)[C@@H](OP(=O)(O)O)[C@H](OP(=O)(O)O)[C@@H](OP(=O)(O)O)[C@H]1OP(=O)(O)O` [sodium phytate, Phytic acid sodium salt hydrate, reference compound], the “increase in Tm of phytase” value in the data set with BP-17 phytase [1] (molar ratio of 14:1 sodium phytate to phytase, phytase UFC, liquid state, FIG. 1) is “approximately 2.7 °C”.

Regarding `O.O.O=C([O-])CC(O)(CC(=O)[O-])C(=O)[O-].[Na+].[Na+].[Na+]` [sodium citrate, Sodium citrate dihydrate, reference compound], the phytase activity retained entry in the data set on BP-17 phytase [2] (425 mM sodium citrate, 60-minutes incubation at 70° C., FIG. 7) is reported as “approximately 90%”; in the data set with BP-17 phytase [2] (half of 425 mM sodium citrate, 60-minutes incubation at 70° C., FIG. 7) it was not above 50%. The phytase activity state result in the data set with BP-17 phytase [2] (sodium citrate below half of 425 mM, FIG. 7) is listed as “inactivated”. Further, the “excipient concentration at which phytase activity loss levels out” value in the data set with BP-17 phytase [3] (increasing phytic acid substrate, FIG. 9) was not below 26 mM.
